Laboratory results published in US20260285853A1, “COMPOUNDS AND METHODS FOR MODULATING SPLICING” (REMIX THERAPEUTICS INC., priority 2023, published 2026).

Legend:
Format in all cases: cell-based
MYB mRNA [1] = assay: Splicing RT-qPCR assay (THP), Table 2A; conditions: Table 2A (THP); for AC50: AJ mRNA increase, read-out: MYB AJ (increase in alternative junction mRNA, AC50); for IC50: CJ mRNA decrease, read-out: MYB CJ (decrease in canonical junction mRNA, IC50)
[2] = test system: SH-SY5Y (human neuroblastoma) cells; assay: Cell viability, Cell Titer Glo 2.0 assay; conditions: read-out: Viability SHSY5Y.3 GI50
Outline: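 CellTiter-Glo 2.0 luminescence read-out after 72 h compound exposure (37 °C, 5% CO2); medium-only wells as blank. DMSO 0.1% final.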

MYB mRNA [3] = assay: Gene panel canonical junction qPCR assay, decrease in CJ mRNA, Table 3; conditions: decrease in canonical junction (CJ) mRNA, gene panel qPCR, Table 3
Outline: (§1)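 Cells: A673 or K562; 24 h compound exposure, 37 °C, 5% CO2; 11-pt 3-fold series from 10 uM final; DMSO ≤0.25%. Lysate → cDNA → qPCR with junction-spanning primers/probe for CJ transcript. ΔCt vs housekeeper, ΔΔCt vs DMSO, 2^(−ΔΔCt), % response, 4PL → IC50.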

HTT mRNA [4] = assay: as above; conditions: decrease in canonical junction (CJ) mRNA, gene panel qPCR, Table 3
Outline: as §1

HTT mRNA [5] = assay: Splicing RT-qPCR assay (THP), Table 2A; conditions: Table 2A (THP); for AC50: AJ mRNA increase, read-out: HTT AJ (increase in alternative junction mRNA, AC50); for IC50: CJ mRNA decrease, read-out: HTT CJ (decrease in canonical junction mRNA, IC50)

Structure (SMILES) | AC50 (MYB mRNA [1]) | IC50 (MYB mRNA [1]) | GI50 [2] | IC50 (MYB mRNA [3]) | IC50 (HTT mRNA [4]) | AC50 (HTT mRNA [5]) | IC50 (HTT mRNA [5])
Cc1cn2cc(NC(=O)c3c(F)cc(N4CCC(N)CC4)c4cn(C)nc34)nc2c(C)n1 [Compound 347, 4-(4-aminopiperidin-1-yl)-N-(6,8-dimethylimidazo[1,2-a]pyrazin-2-yl)-6-fluoro-2-methyl-2H-indazole-7-carboxamide 2,2,2-trifluoroacetate] | < 0.1 µM | < 0.1 µM | 1 to 10 µM | < 0.1 µM | 1 to 10 µM | 1 to 10 µM | 1 to 10 µM
CCNC1CCN(c2cc(Cl)c(C(=O)Nc3cn4cc(C)nc(C)c4n3)c3nn(C)cc23)CC1 [Compound 348, 6-chloro-N-(6,8-dimethylimidazo-[1,2-a]pyrazin-2-yl)-4-[4-(ethylamino)-1-piperidyl]-2-methyl-indazole-7-carboxamide] | 0.1 to 1 µM | 1 to 10 µM | 1 to 10 µM | 1 to 10 µM | > 10 µM | > 10 µM | > 10 µM
Cc1cn2cc(NC(=O)c3c(F)cc(N4CCC(NC5CCC5)CC4)c4cn(C)nc34)nc2c(C)n1 [Compound 349, 4-[4-(cyclobutylamino)-1-piperid-yl]-N-(6,8-dimethyl-imidazo [1,2-a]-pyrazin-2-yl)-6-fluoro-2-methyl-indazole-7-carbox-amide] | < 0.1 µM | < 0.1 µM | 0.1 to 1 µM | < 0.1 µM | > 10 µM | > 10 µM | > 10 µM
CCNC1CCN(c2ccc(C(=O)Nc3cn4cc(CF)nc(C)c4n3)c3nn(C)cc23)CC1 [Compound 350, 4-[4-(ethylamino)-1-piperidyl]-N-[6-(fluoromethyl)-8-methyl-imidazo[1,2-a]pyrazin-2-yl]-2-methyl-indazole-7-carboxamide 2,2,2-trifluoroacetic acid] | 0.1 to 1 µM | 0.1 to 1 µM | 1 to 10 µM | 0.1 to 1 µM | > 10 µM | > 10 µM | > 10 µM
CCNC1CCN(c2cc(F)c(C(=O)Nc3cn4cc(C)nc(OC)c4n3)c3nn(C)cc23)CC1 [Compound 351, 4-[4-(ethyl-amino)-1-piperidyl]-6-fluoro-N-(8-methoxy-6-methyl-imidazo[1,2-a]-pyrazin-2-yl)-2-methyl-indazole-7-carboxamide] | > 10 µM | 1 to 10 µM | 1 to 10 µM | 1 to 10 µM | > 10 µM | > 10 µM | > 10 µM
CCNC1CCN(c2ccc(C(=O)Nc3cc(Oc4ccc(C#N)cc4)c4nc(C)cn4c3)c3nn(C)cc23)CC1 [Compound 352, N-[8-(4-cyanophenoxy)-2-methyl-imidazo[1,2-a]pyridin-6-yl]-4-[4-(ethylamino)-1-piperidyl]-2-methylindazole-7-carboxamide] | < 0.1 µM | < 0.1 µM | 0.1 to 1 µM | < 0.1 µM | 1 to 10 µM | > 10 µM | 1 to 10 µM
CCNC1CCN(c2ccc(C(=O)Nc3cc(Oc4cccnc4)c4nc(C)cn4c3)c3nn(C)cc23)CC1 [Compound 353, 4-[4-(ethylamino)-1-piperidyl]-2-methyl-N-[2-methyl-8-(3-pyridyloxy)-imidazo[1,2-a]-pyridin-6-yl]-indazole-7-carboxamide] | 0.1 to 1 µM | 0.1 to 1 µM | > 10 µM | 0.1 to 1 µM | 1 to 10 µM | 1 to 10 µM | 1 to 10 µM
Cc1cn2cc(NC(=O)c3ccc(N4CCC(NC5(C)CC5)CC4)c4cn(C)nc34)cc(F)c2n1 [Compound 355, N-(8-fluoro-2-methyl-imidazo[1,2-a]-pyridin-6-yl)-2-methyl-4-[4-[(1-methyl-cyclopropyl)amino]-1-piperidyl]indazole-7-carboxamide] | < 0.1 µM | < 0.1 µM | 0.1 to 1 µM | < 0.1 µM | 0.1 to 1 µM | 0.1 to 1 µM | 0.1 to 1 µM
Cc1cn2cc(NC(=O)c3c(F)cc(N4CCC(N(C)C)CC4)c4cn(C)nc34)nc2c(C)n1 [Compound 356, 4-[4-(dimethylamino)-1-piperidyl]-N-(6,8-dimethylimidazo[1,2-a]pyrazin-2-yl)-6-fluoro-2-methyl-indazole-7-carboxamide] | < 0.1 µM | 0.1 to 1 µM | 1 to 10 µM | 0.1 to 1 µM | 1 to 10 µM | 1 to 10 µM | 1 to 10 µM
CCNC1CCN(c2cc(F)c(C(=O)Nc3cn4cc(C)nc4c(Cl)c3OC)c3nn(C)cc23)CC1 [Compound 357, N-(8-chloro-7-methoxy-2-methylimidazo[1,2-a]pyridin-6-yl)-4-[4-(ethylamino)-1-piperidyl]-6-fluoro-2-methyl-indazole-7-carboxamide] | < 0.1 µM | < 0.1 µM | 0.1 to 1 µM | < 0.1 µM | 0.1 to 1 µM | 0.1 to 1 µM | 0.1 to 1 µM
CCNC1CCN(c2ccc(C(=O)Nc3cn4cc(C)nc(CC)c4n3)c3nn(C)cc23)CC1 [Compound 358, 4-[4-(ethylamino)-1-piperidy1]-N-(8-ethyl-6-methyl-imidazo[1,2-a]-pyrazin-2-yl)-2-methyl-indazole-7-carboxamide] | 0.1 to 1 µM | 1 to 10 µM | 1 to 10 µM | 1 to 10 µM | 1 to 10 µM | 1 to 10 µM | 1 to 10 µM
CCNC1CCN(c2cc(F)c(C(=O)Nc3cn4cc(C#N)nc(C)c4n3)c3nn(C)cc23)CC1 [Compound 359, N-(6-cyano-8-methyl-imidazo-[1,2-a]pyrazin-2-yl)-4-[4-(ethylamino)-1-piperidyl]-6-fluoro-2-methyl-indazole-7-carboxamide] | 0.1 to 1 µM | 0.1 to 1 µM | 0.1 to 1 µM | 0.1 to 1 µM | 0.1 to 1 µM | 0.1 to 1 µM | 0.1 to 1 µM
CCNC1CCN(c2ccc(C(=O)Nc3cc(-n4ccc(=O)cc4)c4nc(C)cn4c3)c3nn(C)cc23)CC1 [Compound 360, 4-(4-(ethylamino)piperidin-1-yl)-2-methyl-N-(2-methyl-8-(4-oxopyridin-1-(4H)-yl)imidazo[1,2-a]-pyridin-6-yl)-2H-indazole-7-carboxamide] | 1 to 10 µM | 1 to 10 µM | 1 to 10 µM | 1 to 10 µM | 1 to 10 µM | 1 to 10 µM | 1 to 10 µM
Cc1cn2cc(NC(=O)c3ncc(N4CCC(NC5CC5)CC4)c4cn(C)nc34)cc(F)c2n1 [Compound 361, 4-[4-(cyclopropylamino)-1-piperidyl]-N-(8-fluoro-2-methyl-imidazo[1,2-a]pyridin-6-yl)-2-methyl-pyrazolo[3,4-c]pyridine-7-carboxamide] | 0.1 to 1 µM | 0.1 to 1 µM | 1 to 10 µM | 0.1 to 1 µM | > 10 µM | 1 to 10 µM | > 10 µM
CCNC1CCN(c2cc(F)c(C(=O)Nc3cn4cc(C)nc(CC)c4n3)c3nn(C)cc23)CC1 [Compound 362, 4-[4-(ethylamino)-1-piperidyl]-N-(8-ethyl-6-methyl-imidazo[1,2-a]pyrazin-2-yl)-6-fluoro-2-methyl-indazole-7-carboxamide] | < 0.1 µM | 0.1 to 1 µM | 1 to 10 µM | 0.1 to 1 µM | > 10 µM | > 10 µM | > 10 µM
CCNC1CCN(c2ccc(C(=O)Nc3ccn(-c4ccncn4)n3)c3nn(C)cc23)CC1 [Compound 363, 4-(4-(ethylamino)-piperidin-1-yl)-2-methyl-N-(1-(pyrimidin-4-yl)-1H-pyrazol-3-yl)-2H-indazole-7-carboxamide 2,2,2-trifluoroacetate] | > 10 µM | > 10 µM | > 10 µM | > 10 µM | > 10 µM | > 10 µM | > 10 µM
CCNC1CCN(c2cc(F)c(C(=O)Nc3cn4cc(C)nc4c(N)c3OC)c3nn(C)cc23)CC1 [Compound 364, N-(8-amino-7-methoxy-2-methyl-imidazo[1,2-a]-pyridin-6-yl)-4-[4-(ethylamino)-1-piperidyl]-6-fluoro-2-methyl-indazole-7-carboxamide] | < 0.1 µM | 0.1 to 1 µM | 1 to 10 µM | < 0.1 µM | 1 to 10 µM | 0.1 to 1 µM | 1 to 10 µM
CCNC1CCN(c2ccc(C(=O)Nc3cc(Oc4ccccn4)c4nc(C)cn4c3)c3nn(C)cc23)CC1 [Compound 365, 4-[4-(ethylamino)-1-piperidyl]-2-methyl-N-[2-methyl-8-(2-pyridyloxy)-imidazo[1,2-a]pyridin-6-yl]indazole-7-carboxamide] | 1 to 10 µM | 1 to 10 µM | > 10 µM | 1 to 10 µM | > 10 µM | > 10 µM | > 10 µM
CCNC1CCN(c2ccc(C(=O)Nc3cc(-n4ccccc4=O)c4nc(C)cn4c3)c3nn(C)cc23)CC1 [Compound 366, 4-[4-(ethylamino)-1-piperidyl]-2-methyl-N-[2-methyl-8-(2-oxo-1-pyridyl)imidazo[1,2-a]pyridin-6-yl]indazole-7-carboxamide] | > 10 µM | > 10 µM | > 10 µM | > 10 µM | > 10 µM | > 10 µM | > 10 µM
